Data: patent US6156700A, “3-(1,2-Benzisothiazol- and isoxazol-5-yl)-2,4(1H,3H)-pyrimidinedione or thione and 3-(1,2-benzisothiazol- and isoxazol-5-yl)-4(3H)-pyrimidinone or thione herbicidal agents” (American Cyanmid Company, priority 1998, dated 2000)

Columns and labels:
ABUTH [1] = experiment: Preemergence herbicidal evaluation; type: in vivo; design: scale not given here
Experimental: (§1) The preemergence and postemergence herbicidal properties of certain compounds of the present invention are compared with certain compounds disclosed in U.S. Pat. Nos. 5,484,763 and 5,523,278. The evaluations are performed as described in Examples 185 and 186. Data in Tables V and VI are reported by the compound number given in Example 185 for the compounds of this invention or by comparative compound letter for the compounds disclosed in U.S. Pat. Nos. 5,484,763 and 5,523,278.

AMBEL [2] = experiment: Preemergence herbicidal evaluation; type: in vivo; design: scale not given here
Experimental: as §1

CASOB [3] = experiment: Preemergence herbicidal evaluation; type: in vivo; design: scale not given here
Experimental: as §1

CHEAL [4] = experiment: Preemergence herbicidal evaluation; type: in vivo; design: scale not given here
Experimental: as §1

ECHCG [5] = experiment: Preemergence herbicidal evaluation; type: in vivo; design: scale not given here
Experimental: as §1

GALAP [6] = experiment: Preemergence herbicidal evaluation; type: in vivo; design: scale not given here
Experimental: as §1

GLXMAW [7] = experiment: Preemergence herbicidal evaluation; type: in vivo; design: scale not given here
Experimental: as §1

IPOSS [8] = experiment: Preemergence herbicidal evaluation; type: in vivo; design: scale not given here
Experimental: as §1

SETVI [9] = experiment: Preemergence herbicidal evaluation; type: in vivo; design: scale not given here
Experimental: as §1

ZEAMX [10] = experiment: Preemergence herbicidal evaluation; type: in vivo; design: scale not given here
Experimental: as §1

ORYSAT [11] = experiment: Preemergence herbicidal evaluation; type: in vivo, Oryza sativa; design: scale not given here
Experimental: as §1

ABUTH [12] = experiment: Postemergence herbicidal evaluation; type: in vivo
AMBEL [13] = experiment: Postemergence herbicidal evaluation; type: in vivo
CASOB [14] = experiment: Postemergence herbicidal evaluation; type: in vivo
CHEAL [15] = experiment: Postemergence herbicidal evaluation; type: in vivo
GALAP [16] = experiment: Postemergence herbicidal evaluation; type: in vivo
IPOSS [17] = experiment: Postemergence herbicidal evaluation; type: in vivo
ECHCG [18] = experiment: Postemergence herbicidal evaluation; type: in vivo
SETVI [19] = experiment: Postemergence herbicidal evaluation; type: in vivo
GLXMAW [20] = experiment: Postemergence herbicidal evaluation; type: in vivo
ORYSAT [21] = experiment: Postemergence herbicidal evaluation; type: in vivo, Oryza sativa
ZEAMX [22] = experiment: Postemergence herbicidal evaluation; type: in vivo

Question: Which results are given for Cc1nsc2ccc(N3C(=O)C4=C(CCCC4)C3=O)cc12 [B]?
Answer: herbicidal effect rating (ABUTH [1]; 0.0313-0.0320 kg/ha): 0.0; herbicidal effect rating (ABUTH [1]; 0.0620-0.0630 kg/ha): 3.0; herbicidal effect rating (ABUTH [1]; 0.2500 kg/ha): 2.0; herbicidal effect rating (ABUTH [1]; 0.5000 kg/ha): 5.0; herbicidal effect rating (AMBEL [2]; 0.0313-0.0320 kg/ha): 0.0; herbicidal effect rating (AMBEL [2]; 0.0620-0.0630 kg/ha): 0.0; herbicidal effect rating (AMBEL [2]; 0.1250 kg/ha): 2.0; herbicidal effect rating (AMBEL [2]; 0.2500 kg/ha): 3.0; herbicidal effect rating (AMBEL [2]; 0.5000 kg/ha): 8.0; herbicidal effect rating (CASOB [3]; 0.0313-0.0320 kg/ha): 0.0; herbicidal effect rating (CASOB [3]; 0.0620-0.0630 kg/ha): 0.0; herbicidal effect rating (CASOB [3]; 0.1250 kg/ha): 0.0; herbicidal effect rating (CASOB [3]; 0.2500 kg/ha): 0.0; herbicidal effect rating (CASOB [3]; 0.5000 kg/ha): 0.0; herbicidal effect rating (CHEAL [4]; 0.0313-0.0320 kg/ha): 9.0; herbicidal effect rating (CHEAL [4]; 0.0620-0.0630 kg/ha): 6.0; herbicidal effect rating (CHEAL [4]; 0.1250 kg/ha): 9.0; herbicidal effect rating (CHEAL [4]; 0.2500 kg/ha): 9.0; herbicidal effect rating (CHEAL [4]; 0.5000 kg/ha): 9.0; herbicidal effect rating (ECHCG [5]; 0.0313-0.0320 kg/ha): 0.0; herbicidal effect rating (ECHCG [5]; 0.0620-0.0630 kg/ha): 0.0; herbicidal effect rating (ECHCG [5]; 0.1250 kg/ha): 3.0; herbicidal effect rating (ECHCG [5]; 0.2500 kg/ha): 5.0; herbicidal effect rating (ECHCG [5]; 0.5000 kg/ha): 5.0; herbicidal effect rating (GALAP [6]; 0.0313-0.0320 kg/ha): 0.0; herbicidal effect rating (GALAP [6]; 0.0620-0.0630 kg/ha): 0.0; herbicidal effect rating (GALAP [6]; 0.1250 kg/ha): 5.0; herbicidal effect rating (GALAP [6]; 0.2500 kg/ha): 9.0; herbicidal effect rating (GALAP [6]; 0.5000 kg/ha): 7.0; herbicidal effect rating (GLXMAW [7]; 0.0313-0.0320 kg/ha): 0.0; herbicidal effect rating (GLXMAW [7]; 0.0620-0.0630 kg/ha): 0.0; herbicidal effect rating (GLXMAW [7]; 0.1250 kg/ha): 0.0; herbicidal effect rating (GLXMAW [7]; 0.2500 kg/ha): 1.0; herbicidal effect rating (GLXMAW [7]; 0.5000 kg/ha): 1.0; herbicidal effect rating (IPOSS [8]; 0.0313-0.0320 kg/ha): 0.0; herbicidal effect rating (IPOSS [8]; 0.0620-0.0630 kg/ha): 0.0; herbicidal effect rating (IPOSS [8]; 0.1250 kg/ha): 0.0; herbicidal effect rating (IPOSS [8]; 0.2500 kg/ha): 2.0; herbicidal effect rating (IPOSS [8]; 0.5000 kg/ha): 5.0; herbicidal effect rating (SETVI [9]; 0.0313-0.0320 kg/ha): 0.0; herbicidal effect rating (SETVI [9]; 0.0620-0.0630 kg/ha): 0.0; herbicidal effect rating (SETVI [9]; 0.1250 kg/ha): 2.0; herbicidal effect rating (SETVI [9]; 0.2500 kg/ha): 6.0; herbicidal effect rating (SETVI [9]; 0.5000 kg/ha): 4.0; herbicidal effect rating (ZEAMX [10]; 0.0313-0.0320 kg/ha): 0.0; herbicidal effect rating (ZEAMX [10]; 0.0620-0.0630 kg/ha): 0.0; herbicidal effect rating (ZEAMX [10]; 0.1250 kg/ha): 0.0; herbicidal effect rating (ZEAMX [10]; 0.2500 kg/ha): 0.0; herbicidal effect rating (ZEAMX [10]; 0.5000 kg/ha): 1.0; herbicidal effect rating (ORYSAT [11]; 0.0313-0.0320 kg/ha): 0.0; herbicidal effect rating (ORYSAT [11]; 0.0620-0.0630 kg/ha): 0.0; herbicidal effect rating (ORYSAT [11]; 0.1250 kg/ha): 2.0; herbicidal effect rating (ORYSAT [11]; 0.2500 kg/ha): 2.0; herbicidal effect rating (ORYSAT [11]; 0.5000 kg/ha): 4.0; herbicidal effect rating (ABUTH [12]; 0.0157-0.0160 kg/ha): 8.0; herbicidal effect rating (ABUTH [12]; 0.0313-0.0320 kg/ha): 8.0; herbicidal effect rating (ABUTH [12]; 0.0625-0.0640 kg/ha): 9.0; herbicidal effect rating (ABUTH [12]; 0.1250 kg/ha): 9.0; herbicidal effect rating (ABUTH [12]; 0.2500 kg/ha): 9.0; herbicidal effect rating (ABUTH [12]; 0.5000 kg/ha): 9.0; herbicidal effect rating (AMBEL [13]; 0.0157-0.0160 kg/ha): 2.0; herbicidal effect rating (AMBEL [13]; 0.0313-0.0320 kg/ha): 6.0; herbicidal effect rating (AMBEL [13]; 0.0625-0.0640 kg/ha): 8.0; herbicidal effect rating (AMBEL [13]; 0.1250 kg/ha): 8.0; herbicidal effect rating (AMBEL [13]; 0.2500 kg/ha): 9.0; herbicidal effect rating (AMBEL [13]; 0.5000 kg/ha): 9.0; herbicidal effect rating (CASOB [14]; 0.0157-0.0160 kg/ha): 6.0; herbicidal effect rating (CASOB [14]; 0.0313-0.0320 kg/ha): 7.0; herbicidal effect rating (CASOB [14]; 0.0625-0.0640 kg/ha): 8.0; herbicidal effect rating (CASOB [14]; 0.1250 kg/ha): 8.0; herbicidal effect rating (CASOB [14]; 0.2500 kg/ha): 9.0; herbicidal effect rating (CASOB [14]; 0.5000 kg/ha): 9.0; herbicidal effect rating (CHEAL [15]; 0.0157-0.0160 kg/ha): 3.0; herbicidal effect rating (CHEAL [15]; 0.0313-0.0320 kg/ha): 7.0; herbicidal effect rating (CHEAL [15]; 0.0625-0.0640 kg/ha): 7.0; herbicidal effect rating (CHEAL [15]; 0.1250 kg/ha): 9.0; herbicidal effect rating (CHEAL [15]; 0.2500 kg/ha): 8.0; herbicidal effect rating (CHEAL [15]; 0.5000 kg/ha): 9.0; herbicidal effect rating (GALAP [16]; 0.0157-0.0160 kg/ha): 5.0; herbicidal effect rating (GALAP [16]; 0.0313-0.0320 kg/ha): 7.0; herbicidal effect rating (GALAP [16]; 0.0625-0.0640 kg/ha): 7.0; herbicidal effect rating (GALAP [16]; 0.1250 kg/ha): 7.0; herbicidal effect rating (GALAP [16]; 0.2500 kg/ha): 8.0; herbicidal effect rating (GALAP [16]; 0.5000 kg/ha): 8.0; herbicidal effect rating (IPOSS [17]; 0.0157-0.0160 kg/ha): 6.0; herbicidal effect rating (IPOSS [17]; 0.0313-0.0320 kg/ha): 7.0; herbicidal effect rating (IPOSS [17]; 0.0625-0.0640 kg/ha): 8.0; herbicidal effect rating (IPOSS [17]; 0.1250 kg/ha): 8.0; herbicidal effect rating (IPOSS [17]; 0.2500 kg/ha): 8.0; herbicidal effect rating (IPOSS [17]; 0.5000 kg/ha): 9.0; herbicidal effect rating (ECHCG [18]; 0.0157-0.0160 kg/ha): 0.0; herbicidal effect rating (ECHCG [18]; 0.0313-0.0320 kg/ha): 2.0; herbicidal effect rating (ECHCG [18]; 0.0625-0.0640 kg/ha): 2.0; herbicidal effect rating (ECHCG [18]; 0.1250 kg/ha): 4.0; herbicidal effect rating (ECHCG [18]; 0.2500 kg/ha): 5.0; herbicidal effect rating (ECHCG [18]; 0.5000 kg/ha): 6.0; herbicidal effect rating (SETVI [19]; 0.0157-0.0160 kg/ha): 0.0; herbicidal effect rating (SETVI [19]; 0.0313-0.0320 kg/ha): 0.0; herbicidal effect rating (SETVI [19]; 0.0625-0.0640 kg/ha): 2.0; herbicidal effect rating (SETVI [19]; 0.1250 kg/ha): 4.0; herbicidal effect rating (SETVI [19]; 0.2500 kg/ha): 5.0; herbicidal effect rating (SETVI [19]; 0.5000 kg/ha): 5.0; herbicidal effect rating (GLXMAW [20]; 0.0157-0.0160 kg/ha): 5.5; herbicidal effect rating (GLXMAW [20]; 0.0313-0.0320 kg/ha): 5.5; herbicidal effect rating (GLXMAW [20]; 0.0625-0.0640 kg/ha): 5.5; herbicidal effect rating (GLXMAW [20]; 0.1250 kg/ha): 6.0; herbicidal effect rating (GLXMAW [20]; 0.2500 kg/ha): 7.0; herbicidal effect rating (GLXMAW [20]; 0.5000 kg/ha): 7.5; herbicidal effect rating (ORYSAT [21]; 0.0157-0.0160 kg/ha): 3.5; herbicidal effect rating (ORYSAT [21]; 0.0313-0.0320 kg/ha): 4.0; herbicidal effect rating (ORYSAT [21]; 0.0625-0.0640 kg/ha): 4.5; herbicidal effect rating (ORYSAT [21]; 0.1250 kg/ha): 4.5; herbicidal effect rating (ORYSAT [21]; 0.2500 kg/ha): 5.5; herbicidal effect rating (ORYSAT [21]; 0.5000 kg/ha): 6.0; herbicidal effect rating (ZEAMX [22]; 0.0157-0.0160 kg/ha): 5.0; herbicidal effect rating (ZEAMX [22]; 0.0313-0.0320 kg/ha): 5.5; herbicidal effect rating (ZEAMX [22]; 0.0625-0.0640 kg/ha): 5.0; herbicidal effect rating (ZEAMX [22]; 0.1250 kg/ha): 5.5; herbicidal effect rating (ZEAMX [22]; 0.2500 kg/ha): 6.0; herbicidal effect rating (ZEAMX [22]; 0.5000 kg/ha): 5.5
